The values that follow come from patent US20180237362A1, “NOVEL POLYGODIAL ANALOGS FOR THE TREATMENT OF CANCER AND OTHER PROLIFERATIVE DISEASES” (THE BOARD OF REGENTS OF THE UNIVERSITY OF TAXAS SYSTEM, priority 2015, published 2018).

Series [1] deals with transgenic mouse glioma cells (neurosphere cultures). The experiment in a line: CytoTox-Fluor cytotoxicity assay, neurosphere glioma cultures. Particulars: cdkn2a deletion, PDGFB amplification, TRPV1-deficient; 24 h; 5 at 20 μM, CBD at 10 μM. The series is classed as cell-based. As to the method: FIGS. 5A-D. Activity of 5 against neurosphere glioma cell cultures with clinically relevant mutations. Transgenic mouse glioma cells of defined molecular subtypes were generated by forced expression of EGFRvIII (classical GBM subtype), PDGFB (proneural GBM subtype) in cdkn2a-deficient and cdkn2a/TRPV1-doubly deficient subventricular neural precursors (NPC). These primary cell cultures were treated for 24 hours either with 10 μM CBD versus a corresponding vehicle-control (containing 0.01% DMSO) or 20 μM of 5 versus vehicle control (0.02% DMSO). Cytotoxicity was measured 24 h after incubation and base-line cytotoxicity levels in the controls were arbitrarily defined as 1. Read-outs from treated cells were normalized to their respective vehicle controls and -fold change of relative cytotoxicity was calculated. Each bar represents the mean±SD from two independent experiments; statistical significance, as determined by unpaired t-tests, is indicated: *** represents p<0.001; ** p<0.005; * p=0.0257; ns not significant).
Human mammary carcinoma MCF-7 (ATCC HTB22) cells were cultured in RPMI supplemented with 10% FBS. […]
The CytoTox-Fluor cytotoxicity assay from Promega has been used according to manufacturer's instructions. […] After 2 hours of incubation at 37° C., the fluorescence intensity was measured using the Tecan InfiniteF200 fluorescence plate reader (485 nm Ex/520 nm Em). […]

The test system of series [2] is human A549 non-small cell lung cancer (NSCLC). The experiment in a line: MTT antiproliferative assay, A549. The series is classed as cell-based. As to the method: (§1) Human mammary carcinoma MCF-7 (ATCC HTB22) cells were cultured in RPMI supplemented with 10% FBS. The U87 cells (ATCC HTB-14) were cultured in DMEM culture medium, while the A549 cells (DSMZ ACC107) were cultured in RPMI culture medium supplemented with 10% heat-inactivated FBS. The GBM Hs683 (ATCC HTB-138) cells were cultivated in DMEM supplemented with 10% FBS. The human uterine sarcoma MES-SA (ATCC CRL1966) and MES-SA/D×5 cells were cultured in RPMI-1640 medium supplemented with 10% FBS with MES SA/D×5 maintained in the presence of 500 nM Doxorubicin (Sigma). SKMEL-28 cells (ATCC HTB72) and U373 GBM cells (ECACC 08061901) were cultured in RPMI culture medium supplemented with 10% heat-inactivated FBS. Cell culture media were supplemented with 4 mM glutamine (Lonza code BE17-605E), 100 μg/mL gentamicin (Lonza code 17-5182), and penicillin-streptomycin (200 units/ml and 200 μg/ml) (Lonza code 17-602E). The MDA-MB-231 (ATCC HTB-26) epithelial mammary adenocarcinoma cells were cultured in Eagle's minimum essential medium (EMEM; Invitrogen) containing 5% fetal calf serum (FCS, Cambrex), 2 mM L-glutamine (Invitrogen), 0.06% HEPES (Invitrogen) and penicillin (50 IU/ml)/streptomycin (50 µg/ml; Invitrogen) at 37° C. in a humidified atmosphere of 5% CO2 in air. Transformed mouse NPCs were cultured in suspension under neurosphere conditions at 37° C. in a humidified atmosphere of […] and 5% CO2 in DMEM F12 (Invitrogen 11320-074) supplemented with 1×B27 supplement (Invitrogen 17504-044), 5% penicillin-streptomycin (Biochrom 10378-017), 10 ng/ml EGF (R&D systems 236-EG), 10 ng/ml FGF (PeproTech 100-18B).
(§2) Antiproliferative properties of the synthesized compounds were evaluated by the MTT assay. All compounds were dissolved in DMSO at a concentration of either 100 μM or 50 μM prior to cell treatment. The cells were trypsinized and seeded at various cell concentrations depending on the cell type. The cells were grown for 24 h to 72 h, treated with compounds at concentrations ranging from 0.001 to 100 μM and incubated for 48 or 72 h in 100 or 200 μL media depending on the cell line used. The number of experiments and replicates varied depending on the cell line. Cells treated with 0.1% DMSO were used as a negative control; 1 μM PAO was used as a positive control.
(§3) The synthesized C12-Wittig derivatives were evaluated for antiproliferative activities in a panel of cancer cell lines that included apoptosis-resistant human U373 glioblastoma (GBM) (Lefranc et al., 2013), human A549 non-small cell lung cancer (NSCLC) and human SKMEL-28 melanoma (Mathieu et al., 2009) as well as apoptosis-sensitive human Hs683 anaplastic oligodendroglioma (Lefranc et al., 2013) and human MCF-7 breast cancer (Frolova et al., 2013).

A further series deals with human SKMEL-28 melanoma. Kind of series: MTT antiproliferative assay, SKMEL-28. The series is classed as cell-based. Particulars: Homo sapiens, SK-MEL-28, 72 h treatment, sextuplicates, read-out: GI50 in vitro values, SKMEL-28. The method, then: as §1, §2, §3
The subject of series [3] is human MCF-7 breast cancer. The experiment in a line: MTT antiproliferative assay, MCF-7. The series is classed as cell-based. Particulars: Homo sapiens, MCF7, 72 h treatment, sextuplicates, read-out: GI50 in vitro values, MCF-7. The method, then: as §1, §2, §3
In general terms: Tetrazolium assays rely on reduction of a dye to a coloured formazan, in cell work by metabolically active cells.

For series [4], the system named is human U373 glioblastoma (GBM). The experiment in a line: MTT antiproliferative assay, U373. The series is classed as cell-based. Particulars: Homo sapiens, U373 MG, 72 h treatment, sextuplicates, read-out: GI50 in vitro values, U373. As to the method:
as §1, §2, §3

Series [5] concerns human Hs683 anaplastic oligodendroglioma. Kind of series: MTT antiproliferative assay, Hs683. Particulars: Homo sapiens, Hs 683, 72 h treatment, sextuplicates, read-out: GI50 in vitro values, Hs683. The class given is cell-based. The method, then: as §1, §2, §3
The subject of series [6] is panel of cancer cell lines (A549, SKMEL-28, MCF-7, U373, Hs683). The experiment in a line: MTT antiproliferative assay, panel of five cancer cell lines. The series is classed as cell-based, human. Particulars: Homo sapiens; mean over five cell lines, 72 h treatment, MTT assay; read-out: GI50 in vitro values, Mean + SEM. As to the method:
as §2, §3

Series [7] concerns U373 human glioma cell line. The experiment in a line: Quantitative videomicroscopy, U373. The class given is cell-based. The note with it: at GI50 concentrations (Table 1). The method, then: FIG. 8. In vitro videomicroscopic analysis of the anticancer effects of 1 and its C12-Wittig derivatives 5 and 13. The U373 human glioma cell line was treated with polygodial, 5 and 13 at their mean GI50 concentrations (Table 1) or left untreated. Videomicroscopy enabled taking pictures of the culture field every 4 minutes. The experiment was conducted once in triplicate. While the morphology of cells treated with 1 was fixed over time, 5 and 13 exerted cytostatic effects on U373 cells.
In an effort to gain insight into possible mechanisms associated with antiproliferative properties of 1 and the C12-Wittig derivatives, the morphological changes in cells treated with these compounds were studied with computer-assisted phase-contrast microscopy (Luchetti et al., 2012) (quantitative videomicroscopy).

For a further series, the system named is U373 cells. The experiment in a line: Trypan blue viability assay, U373. The series is classed as cell-based, human. Particulars: 72 h treatment. The method, then:
FIG. 9. Viability of U373 cells by trypan blue staining. U373 cells were treated for 72 h with 1 or 13 and stained with trypan blue. The experiment was conducted once in triplicate. After having taken pictures, cells were fixed with ice-cold methanol and again stained with trypan blue as internal positive control.
To confirm the results obtained in the videomicroscopy experiments, trypan blue assay was employed to detect necrotic and late apoptotic cells that had lost their plasma membrane integrity (FIG. 9). […] These observations support the results of the MTT assay and provide an explanation for the effectiveness of the C12-Wittig derivatives against cells, which display resistance to apoptosis induction. In contrast, at the concentrations necessary to induce cancer cell death 1 behaves as a toxic fixative compound of little promise as a potential drug.

The subject of series [8] is uterine sarcoma MES-SA cells. Kind of series: MTT antiproliferative assay, MES-SA. The class given is cell-based, human. Particulars: Homo sapiens, MES-SA, 48 h treatment, relative to DMSO control, read-out: GI50 in vitro values, MES-SA. The method, then: as §1
(§4) Antiproliferative properties of the synthesized compounds were evaluated by the MTT assay. All compounds were dissolved in DMSO at a concentration of either 100 μM or 50 μM prior to cell treatment. The cells were trypsinized and seeded at various cell concentrations depending on the cell type. […]

Series [9] concerns MDR uterine sarcoma cell line MES-SA/Dx5. Kind of series: MTT antiproliferative assay, MDR MES-SA/Dx5. The series is classed as cell-based, human. The note with it: for change of potency against MES-SA/Dx5 MDR cell line as compared with parent MES-SA cells: 48 h MTT; for GI50: Homo sapiens, MES-SA/Dx5, 48 h treatment, MTT assay, relative to DMSO control, read-out: GI50 in vitro values, MES-SA/Dx5. The method, then: as §1, §2
Selection of the MES-SA/D×5 cell line was done according to Harker et al. (Harker & Sikic, 1985). The cells were split and allowed to adhere overnight. The next day cells were initially exposed to doxorubicin (DOX) at the concentration of 100 nM, which represented the GI50 concentration. The cells were maintained at this DOX concentration until their growth rate reached that of the untreated cells. The DOX concentration was then increased in two-fold increments following the same growth criteria at each concentration to a final DOX concentration of 500 nM. Each new DOX concentration required approximately 2 passages to reach the growth rate of the untreated cells.
Often, tumors initially respond to chemotherapy but eventually become refractory to the continuing treatment. Such acquired resistance commonly occurs through the development of a multi-drug resistant phenotype (MDR) (Gottesman et al., 2002 and Saraswathy & Gong, 2013) affecting many common chemotherapeutic agents, including the vinca alkaloids (Chen et al., 2000) and taxanes (Geney et al., 2002). In addition, the development of apoptosis resistance and MDR mechanisms is often related and concurrent (Ruefli et al., 2002 and Johnstone et al., 1999), and thus it was of interest to evaluate 5 against MDR cells. Towards this end, the MDR uterine sarcoma cell line MES-SA/D×5, established by growing the parent uterine sarcoma MES-SA in the presence of increasing concentrations of doxorubicin and resistant to multiple functionally and structurally unrelated molecules (Harker & Sikic, 1985), was utilized.

Series [10] concerns U87 glioblastoma cell cultures. Kind of series: MTT growth curves, U87. The class given is cell-based, human. Particulars: apoptosis-resistant U87 GBM; concentrations up to 100 μM. As to the method:
as §1, §4

Molecules are shown by their SMILES.

Turning to `C=C(C)[C@@H]1CCC(C)=C[C@H]1c1c(O)cc(CCCCC)cc1O` [CBD, cannabidiol, reference compound], the “cytotoxicity against GBM neurosphere cultures lacking the TRPV1 gene” value in series [1] is given as “loses its activity”.
Regarding `C#CCCCOC(=O)/C=C/C1=CC[C@H]2C(C)(C)CCC[C@]2(C)[C@H]1C=O` [Compound 13], the GI50 in series [2] (Homo sapiens, A549, 72 h treatment, MTT assay, sextuplicates, read-out: GI50 in vitro values, A549) amounted to 30 µM; in the series on human SKMEL-28 melanoma, 36 µM; in [3], 30 µM; in [4], 35 µM; in series [5] it was 33 µM; in series [6] it was 33 ± 1 µM. In addition, the “morphological effect by videomicroscopy” value in series [7] was “inhibited cancer cell proliferation without inducing cell death”. In addition, in the series with U373 cells, the “viability by trypan blue staining” value is given as “still alive after 72 hr of treatment”.
As to `CC(=O)O[C@H]1C(=O)[C@@]2(C)[C@H]([C@H](OC(=O)c3ccccc3)[C@]3(O)C[C@H](OC(=O)[C@H](O)[C@@H](NC(=O)c4ccccc4)c4ccccc4)C(C)=C1C3(C)C)[C@]1(OC(C)=O)CO[C@@H]1C[C@@H]2O` [Paclitaxel], the “effect on proliferation/viability of all cells, A549” value in [2] (apoptosis-resistant A549 NSCLC, concentrations up to 100 μM) is “no effect on proliferation of ca. 50% of cells”. Also, in series [8], the GI50 is 0.007 µM. Moreover, in series [9], the “change of potency against MES-SA/Dx5 MDR cell line as compared with parent MES-SA cells” value is “lost their potency by a factor of a thousand” and the GI50 amounted to 10 µM. The “effect on proliferation/viability of all cells, U87” value in series [10] is reported as “no effect on proliferation of ca. 50% of cells”.
In the case of `CC[C@]1(O)C[C@@H]2CN(CCc3c([nH]c4ccccc34)[C@@](C(=O)OC)(c3cc4c(cc3OC)N(C)[C@H]3[C@@](O)(C(=O)OC)[C@H](OC(C)=O)[C@]5(CC)C=CCN6CC[C@]43[C@@H]65)C2)C1` [Vinblastine], the GI50 in series [8] turned out to be 0.006 µM; in series [9], 5 µM. Further, in series [9], the “change of potency against MES-SA/Dx5 MDR cell line as compared with parent MES-SA cells” value is on record as “lost their potency by a factor of a thousand”.
